Results reported in ChEMBL document CHEMBL1759929, “Synthesis and pharmacological evaluation of novel benzoylazole-based PPAR α/γ activators” (Bioorg Med Chem Lett, 2011).

Columns and labels:
[1] = molecular target: T1, Peroxisome proliferator-activated receptor gamma (Homo sapiens, UniProt P37231); experiment: Partial agonist activity at human PPARgamma expressed in CHO cells co-transfected with Gal4-responsive luciferase reporter plasmid after 24 hrs by transactivation assay; format: functional, cell-based
T1 sequence (P37231 whole entry): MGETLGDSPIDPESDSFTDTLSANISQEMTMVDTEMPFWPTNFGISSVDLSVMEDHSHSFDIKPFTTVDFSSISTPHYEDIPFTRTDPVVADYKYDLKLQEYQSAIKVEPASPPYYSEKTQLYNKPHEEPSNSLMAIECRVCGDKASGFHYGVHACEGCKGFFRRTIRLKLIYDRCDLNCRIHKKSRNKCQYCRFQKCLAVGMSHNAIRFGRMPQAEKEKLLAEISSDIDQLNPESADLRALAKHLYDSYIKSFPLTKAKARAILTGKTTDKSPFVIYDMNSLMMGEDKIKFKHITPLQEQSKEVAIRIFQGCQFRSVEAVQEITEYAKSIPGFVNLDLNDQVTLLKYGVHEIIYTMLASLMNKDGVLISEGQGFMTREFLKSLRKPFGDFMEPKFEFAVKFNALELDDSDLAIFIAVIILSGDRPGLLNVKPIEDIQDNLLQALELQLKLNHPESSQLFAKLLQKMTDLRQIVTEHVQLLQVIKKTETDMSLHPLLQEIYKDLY

[2] = molecular target: T2, Peroxisome proliferator-activated receptor alpha (Homo sapiens, UniProt Q07869); experiment: Partial agonist activity at human PPARalpha expressed in CHO cells co-transfected with Gal4-responsive luciferase reporter plasmid after 24 hrs by transactivation assay; format: functional, cell-based
T2 sequence (Q07869 whole entry): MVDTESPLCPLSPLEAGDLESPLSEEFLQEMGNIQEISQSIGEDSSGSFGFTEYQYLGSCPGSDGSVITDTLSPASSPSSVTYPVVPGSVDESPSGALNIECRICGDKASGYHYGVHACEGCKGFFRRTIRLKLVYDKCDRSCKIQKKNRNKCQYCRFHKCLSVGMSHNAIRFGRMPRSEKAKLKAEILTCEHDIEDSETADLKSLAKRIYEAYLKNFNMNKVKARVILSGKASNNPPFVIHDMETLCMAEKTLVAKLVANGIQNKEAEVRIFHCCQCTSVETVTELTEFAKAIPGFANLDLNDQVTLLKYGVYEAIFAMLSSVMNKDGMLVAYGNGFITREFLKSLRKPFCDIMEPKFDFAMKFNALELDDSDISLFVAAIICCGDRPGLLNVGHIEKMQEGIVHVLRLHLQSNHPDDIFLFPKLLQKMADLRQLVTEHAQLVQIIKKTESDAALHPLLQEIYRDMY

[3] = molecular target: T3, Peroxisome proliferator-activated receptor alpha (Homo sapiens) (UniProt Q07869); experiment: Partial agonist activity at human PPARalpha expressed in CHO cells co-transfected with Gal4-responsive luciferase reporter plasmid after 24 hrs by transactivation assay relative to fenofibric acid; format: functional, cell-based; set-up: concentration or dose not given beside the values
T3 sequence (whole entry): T2 sequence (Q07869 whole entry)

[4] = molecular target: T4, Peroxisome proliferator-activated receptor alpha (Mus musculus) (UniProt P23204); experiment: Partial agonist activity at mouse PPARalpha expressed in CHO cells co-transfected with Gal4-responsive luciferase reporter plasmid after 24 hrs by transactivation assay relative to fenofibric acid; format: functional, cell-based
T4 sequence (whole entry): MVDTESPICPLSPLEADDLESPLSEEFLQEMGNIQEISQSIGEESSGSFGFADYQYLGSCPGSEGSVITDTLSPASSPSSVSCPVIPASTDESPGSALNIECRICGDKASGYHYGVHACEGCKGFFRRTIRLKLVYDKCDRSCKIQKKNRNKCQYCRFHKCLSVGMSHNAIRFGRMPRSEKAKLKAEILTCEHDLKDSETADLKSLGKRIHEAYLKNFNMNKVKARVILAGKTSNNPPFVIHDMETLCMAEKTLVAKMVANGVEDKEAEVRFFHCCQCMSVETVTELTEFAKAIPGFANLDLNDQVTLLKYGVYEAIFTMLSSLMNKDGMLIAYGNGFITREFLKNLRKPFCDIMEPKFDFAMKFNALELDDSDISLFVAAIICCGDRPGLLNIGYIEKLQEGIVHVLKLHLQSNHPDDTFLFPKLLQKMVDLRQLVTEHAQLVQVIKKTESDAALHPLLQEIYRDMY

Homo sapiens = species on record: Homo sapiens; experiment: Selectivity ratio of EC50 for human PPARalpha to EC50 for human PPARgamma
[5] = Selectivity ratio of EC50 for mouse PPARalpha to EC50 for human PPARgamma
[6] = Cmax in rat at 10 mg/kg, po; format: ADME, organism-based; set-up: dose 10 mg/kg, route oral; conditions: in vivo
[7] = Oral bioavailability in rat at 10 mg/kg; format: ADME, organism-based; conditions: in vivo
[8] = Clearance in rat at 1 mg/kg, iv; format: ADME, organism-based; set-up: dose 1 mg/kg, route intravenous; conditions: in vivo
[9] = Volume of distribution in rat at 1 mg/kg, iv; format: ADME, organism-based; set-up: dose 1 mg/kg, route intravenous; conditions: in vivo
[10] = Half life in rat at 1 mg/kg, iv; format: ADME, organism-based; set-up: dose 1 mg/kg, route intravenous; conditions: in vivo
Mus musculus [11] = experiment: Antidiabetic effect in db/db mouse assessed as reduction in plasma glucose level at 30 mg/kg/day, po administered daily for 14 days; format: functional; conditions: 336 h
Mus musculus [12] = experiment: Antidiabetic effect in db/db mouse assessed as reduction in plasma triglyceride level at 30 mg/kg/day, po administered daily for 14 days; format: functional; conditions: 336 h
Mus musculus [13] = experiment: Antidiabetic effect in db/db mouse assessed as increase in HDL cholesterol level at 30 mg/kg/day, po administered daily for 14 days; format: functional; conditions: 336 h
Mus musculus [14] = experiment: Toxicity in db/db mouse assessed as body weight gain at 30 mg/kg/day, po administered daily for 14 days relative to control; format: organism-based; set-up: route oral; conditions: in vivo, 336 h
Mus musculus [15] = experiment: Toxicity in db/db mouse assessed as effect on food intake at 30 mg/kg/day, po administered daily for 14 days relative to control; format: organism-based; set-up: route oral; conditions: in vivo, 336 h

| EC50 [1] [µM] | EC50 [2] [µM] | Activity [3] [%] | Structure (SMILES) | other results |
| --- | --- | --- | --- | --- |
| 4.6 | > 10 |  | Cc1ccc(C(=O)c2nc3ccccc3n2C/C=C/c2cccc(OCC(=O)O)c2)cc1 |  |
| > 10 | > 10 |  | Cc1ccc(C(=O)c2nccn2C/C=C/c2cccc(OCC(=O)O)c2)cc1 |  |
| 1.7 | 3.6 | 42 | Cc1ccc(C(=O)c2nc3ccccc3n2C/C=C/c2cccc(OC(C)(C)C(=O)O)c2)cc1 |  |
|  |  | 44 | Cc1ccc(C(=O)c2nc3ccccc3n2/C=C/c2cccc(OC(C)(C)C(=O)O)c2)cc1 [listing 1 of 2 here] | Activity [4]: 77%; Ratio EC50 (Homo sapiens): 18; Ratio EC50 [5]: 13 |
| 4.8 | 3.6 | 60 | Cc1ccc(C(=O)c2nc(C)c(C)n2C/C=C/c2cccc(OC(C)(C)C(=O)O)c2)cc1 |  |
| 0.13 | 2.4 |  | Cc1ccc(C(=O)c2nc3ccccc3n2/C=C/c2cccc(OC(C)(C)C(=O)O)c2)cc1 [listing 2 of 2 here] |  |
| 3 | 3.6 | 60 | Cc1ccc(C(=O)c2nc3c(n2C/C=C/c2cccc(OC(C)(C)C(=O)O)c2)CCCC3)cc1 |  |
| 6 |  |  | Cc1ccc(C(=O)c2nc3ccccc3n2Cc2cccc(OC(C)(C)C(=O)O)c2)cc1 |  |
|  |  |  | Cc1ccc(C(=O)c2nc3ccccc3n2/C=C/c2cccc(OC(C)(C)C(=O)[O-])c2)cc1.[Na+] | Cmax [6]: 4340 ng/mL; bioavailability [7]: 110%; clearance [8]: 3.48 mL/min/kg; Vd [9]: 0.747 L/kg; half-life [10]: 1.45 h; inhibition in vivo at 30 mg/kg/day (Mus musculus [11]): 60%; inhibition in vivo at 30 mg/kg/day (Mus musculus [12]): 86%; inhibition in vivo at 30 mg/kg/day (Mus musculus [13]): 38%; Activity (Mus musculus [14]): 11%; Activity (Mus musculus [15]): Non-toxic |
| 12 | 0.62 | 56 | Cc1ccc(C(=O)c2nccn2C/C=C/c2cccc(OC(C)(C)C(=O)O)c2)cc1 |  |
| 3.3 |  |  | Cc1ccc(C(=O)c2nc3ccccc3n2-c2cccc(OC(C)(C)C(=O)O)c2)cc1 |  |
|  |  | 100 | CC(C)(Oc1ccc(C(=O)c2ccc(Cl)cc2)cc1)C(=O)O |  |
|  |  |  | CCc1ccc(CCOc2ccc(CC3SC(=O)NC3=O)cc2)nc1 (centres undefined) [PIOGLITAZONE] | inhibition in vivo at 30 mg/kg/day (Mus musculus [11]): 46%; inhibition in vivo at 30 mg/kg/day (Mus musculus [12]): 69%; inhibition in vivo at 30 mg/kg/day (Mus musculus [13]): 10%; Activity (Mus musculus [14]): 17% |
